Consider 31 molecules from paper PMC8434007 (Molecules, 2021).

Holding throughout (assay): biochemical
Assay [1] concerns the target T1, horse serum butyrylcholinesterase (eqBChE) (Equus caballus, UniProt P81908).
T1 construct: AChE (from electric eel) and BChE (from horse serum); from tissue; host or cells: horse serum
Particulars: for inhibition at 10 µM: read-out: inhibition percentage ± SEM, BChE.

Assay [2] addresses T2, bovine thrombin (Bos taurus, UniProt P00735).
T2 construct: purchased Sigma-Aldrich (Milan, Italy)
Particulars: for inhibition at 50 µM: read-out: inhibition percentage ± SEM, thr.

Assay [3] deals with T3, human recombinant fXa (Homo sapiens, UniProt P00742).
T3 construct: purchased Chromogenix AB-Instrumentation Laboratories (Milan, Italy)
T3 sequence (P00742 235-488 limits assumed): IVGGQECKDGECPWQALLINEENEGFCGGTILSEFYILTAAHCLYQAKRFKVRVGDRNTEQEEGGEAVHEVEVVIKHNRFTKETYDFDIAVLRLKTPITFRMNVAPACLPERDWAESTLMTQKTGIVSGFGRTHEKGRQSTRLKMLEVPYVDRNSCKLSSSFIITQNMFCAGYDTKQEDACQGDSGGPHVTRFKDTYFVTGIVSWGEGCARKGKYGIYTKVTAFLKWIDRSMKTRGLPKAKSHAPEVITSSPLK
T3 sequence (P00742 41-179 partner limits assumed): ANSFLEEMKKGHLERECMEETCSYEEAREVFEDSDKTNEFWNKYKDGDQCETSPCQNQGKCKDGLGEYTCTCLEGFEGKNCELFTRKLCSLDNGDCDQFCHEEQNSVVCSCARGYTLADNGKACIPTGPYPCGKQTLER
Particulars: for inhibition at 50 µM: read-out: inhibition percentage ± SEM, fXa.

Assay [4] has as its target T4, electric eel acetylcholinesterase (eeAChE) (Electrophorus electricus, UniProt O42275).
T4 construct: AChE (from electric eel) and BChE (from horse serum); from tissue
Format: biochemical. Particulars: for inhibition at 10 µM: read-out: inhibition percentage ± SEM, AChE.

Setting [5] is: horse serum BChE, Cheng–Prousoff from IC50, read-out: Ki BChE.
The mark [6] stands for this setting: bovine serum thrombin, Cheng–Prousoff from IC50, pH 8, read-out: Ki thr.
[7] abbreviates: human recombinant fXa, Cheng–Prousoff from IC50, pH 8, read-out: Ki fXa.
[8] abbreviates: electric eel AChE, Cheng–Prousoff from IC50, read-out: Ki AChE.

Where a name gives a salt, the structure may show the parent alone. Read-outs that look alike come from different tables or passages of the source.

T4 sequence (O42275 24-633): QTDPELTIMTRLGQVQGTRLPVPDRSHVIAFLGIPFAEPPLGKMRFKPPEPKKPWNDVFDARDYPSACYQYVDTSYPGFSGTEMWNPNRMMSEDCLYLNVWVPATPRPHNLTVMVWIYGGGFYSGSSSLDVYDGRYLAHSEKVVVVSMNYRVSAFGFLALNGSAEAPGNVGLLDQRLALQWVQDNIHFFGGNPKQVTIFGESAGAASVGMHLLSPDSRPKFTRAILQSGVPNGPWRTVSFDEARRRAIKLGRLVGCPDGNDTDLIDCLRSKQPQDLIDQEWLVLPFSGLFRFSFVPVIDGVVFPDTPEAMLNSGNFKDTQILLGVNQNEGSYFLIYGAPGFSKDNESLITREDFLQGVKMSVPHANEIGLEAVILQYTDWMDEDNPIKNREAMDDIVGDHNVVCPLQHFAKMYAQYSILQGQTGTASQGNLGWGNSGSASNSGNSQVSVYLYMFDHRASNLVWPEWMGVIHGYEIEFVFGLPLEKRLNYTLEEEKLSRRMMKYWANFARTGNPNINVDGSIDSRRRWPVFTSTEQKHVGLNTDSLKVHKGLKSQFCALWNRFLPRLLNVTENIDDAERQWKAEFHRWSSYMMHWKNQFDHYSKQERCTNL
T1 sequence (P81908 whole entry): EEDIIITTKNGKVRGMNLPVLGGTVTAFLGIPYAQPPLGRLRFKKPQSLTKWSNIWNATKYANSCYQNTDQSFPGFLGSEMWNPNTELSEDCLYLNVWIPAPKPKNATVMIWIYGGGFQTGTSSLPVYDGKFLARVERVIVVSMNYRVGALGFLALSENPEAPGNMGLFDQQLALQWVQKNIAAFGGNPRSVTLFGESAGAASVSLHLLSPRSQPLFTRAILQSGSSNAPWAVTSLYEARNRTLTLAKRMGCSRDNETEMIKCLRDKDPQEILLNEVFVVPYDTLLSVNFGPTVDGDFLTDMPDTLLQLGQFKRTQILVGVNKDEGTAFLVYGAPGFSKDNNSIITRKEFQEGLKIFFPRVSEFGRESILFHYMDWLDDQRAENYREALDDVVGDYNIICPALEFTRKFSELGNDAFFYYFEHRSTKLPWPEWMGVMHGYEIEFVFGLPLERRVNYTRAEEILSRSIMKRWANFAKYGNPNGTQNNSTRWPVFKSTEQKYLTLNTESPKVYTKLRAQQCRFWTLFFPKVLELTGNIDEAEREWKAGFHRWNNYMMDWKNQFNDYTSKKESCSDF

Take `N=C(N)N1CCC(C(=O)Nc2cccc(OCc3cc(-c4ccc(Cl)cc4)on3)c2)CC1` [Compound 25]: the Ki in assay [1] (setting [5]) is 7670 nM; in assay [2] (setting [6]), 630 nM; in assay [3] (setting [7]), 26 nM; in assay [4] (setting [8]) it was 11000 nM.
On to `N=C(N)N1CCC(C(=O)Nc2ccccc2OCc2cc(-c3ccc(Cl)cc3)on2)CC1` [Compound 27], for which the Ki was 10000 nM in assay [1] (setting [5]), 21200 nM in assay [2] (setting [6]) and 60 nM in assay [3] (setting [7]). In assay [4], the inhibition (commonly the percentage by which the read-out fell short of the control) at 10 µM turned out to be 16%.
Regarding `O=C(Nc1ccccc1OCc1ccc(F)cc1)C1CCN(C2CCCC2)CC1` [Compound 19, N-(2-(4-fluorobenzyloxy)phenyl)-1-cyclopentylpiperidine-4-carboxamide], the Ki in assay [1] (setting [5]) is 215 nM. The inhibition at 50 µM turned out to be 12% in assay [2] (bovine serum thrombin) and 28% in assay [3] (human recombinant fXa). In assay [4], the inhibition at 10 µM amounted to 35%.
With `N=C(N)N1CCC(C(=O)Nc2cccc(OCc3ccc(-c4ccc(Cl)cc4)cc3)c2)CC1` [Compound 23], the Ki in assay [1] (setting [5]) worked out at 90 nM; in assay [2] (setting [6]) it was 2040 nM; in assay [3] (human fXa, read-out: Ki fXa), 31 ± 1 nM; in assay [4] (setting [8]) it was 5800 nM.
Turning to `O=C(Nc1cccc(OCCc2cccc(F)c2)c1)C1CCN(c2ccncc2)CC1` [Compound 6], the Ki was determined as 1750 nM in assay [1] (setting [5]), 2140 nM in assay [2] (setting [6]), 488 nM in assay [3] (setting [7]) and 369 nM in assay [4] (setting [8]).
The like results for `N=C(N)N1CCC(C(=O)Nc2cccc(OCc3cc(-c4cccc(Cl)c4)on3)c2)CC1` [Compound 29] were, in that order, 1120 nM, 15300 nM, 388 nM and 10000 nM.
The like results for `O=C(Nc1ccc(F)cc1)c1cccc(NC(=O)C2CCN(c3ccncc3)CC2)c1` [Compound 9, N-(3-(4-fluorophenylcarbamoyl)phenyl)-1-(pyridin-4-yl)piperidine-4-carboxamide] were, in that order, 8250 nM, 4470 nM, 4040 nM and 270 nM.
With `CC(C)N1CCC(C(=O)Nc2cccc(OCc3cc(-c4ccc(Cl)cc4)on3)c2)CC1` [Compound 24], the Ki in assay [1] (setting [5]) is 3060 nM; in assay [3] (setting [7]) it was 218 nM; in assay [4] (setting [8]) it was 6300 nM. Further, the inhibition at 50 µM in assay [2] (bovine serum thrombin) was determined as 15%.
On to `O=C(Nc1cccc(OCc2cccc(F)c2)c1)C1CCN(c2ccncc2)CC1` [Compound 1], for which the Ki in assay [1] (setting [5]) was determined as 6950 nM; in assay [2] (setting [6]) it was 6 nM; in assay [3] (setting [7]), 5600 nM; in assay [4] (setting [8]), 58 nM; in assay [4] (read-out: Ki eeAChE from replot of Lineweaver–Burk slopes versus inhibitor concentration), 56 nM. Also, the “mechanism of eeAChE inhibition” value in assay [4] (Lineweaver–Burk, changed both Vmax and KM) is given as “noncompetitive/mixed-type inhibition”. Also, in assay [4] (thr vs AChE inhibition, one unit higher than predicted by docking), the “experimental ΔΔG score” value is reported as “about 1.3 kcal/mol”.
With `CC(C)N1CCC(C(=O)Nc2ccccc2OCc2ccc(Cl)cc2)CC1` [Compound 20, N-(2-(4-chlorobenzyloxy)phenyl)-1-isopropylpiperidine-4-carboxamide], the results for the Ki in assay [1] (setting [5]) and in assay [3] (setting [7]) were 105 nM and 484 nM, respectively. In addition, the inhibition at 50 µM in assay [2] (bovine serum thrombin) was found to be 20%. For the same molecule, in assay [4], the inhibition at 10 µM came out at 11%.
In the case of `CC(C)N1CCC(C(=O)Nc2cccc(OCc3ccc(-c4ccc(Cl)cc4)cc3)c2)CC1` [Compound 22], the inhibition at 10 µM in assay [1] (horse serum BChE) came to 35%. Also, the inhibition at 50 µM in assay [2] (bovine serum thrombin) turned out to be 5%. For the same molecule, the Ki in assay [3] (setting [7]) came to 165 nM; in assay [4] (setting [8]) it was 3330 nM.
Regarding `[H]/N=C(/N)c1ccc(NCc2nc3cc(C(=O)N(CCC(=O)O)c4ccccn4)ccc3n2C)cc1` [dabigatran, reference compound], in assay [1] (horse serum BChE), the inhibition at 10 µM worked out at 36%. The same molecule displayed a Ki in assay [2] of 4.2 nM.
Turning to `O=C(Nc1cccc(COc2ccc(F)cc2)c1)C1CCN(c2ccncc2)CC1` [Compound 3], the Ki in assay [1] (setting [5]) was determined as 2600 nM; in assay [2] (setting [6]), 26800 nM; in assay [3] (setting [7]) it was 774 nM; in assay [4] (setting [8]), 165 nM.
For `N=C(N)N1CCC(C(=O)Nc2cccc(OCc3ccc(F)cc3)c2)CC1` [Compound 13] the same measures were 260 nM, 20000 nM, 33000 nM and 10000 nM.
With `CC(C)N1CCC(C(=O)Nc2cccc(OCc3cc(-c4ccc(Cl)s4)on3)c2)CC1` [Compound 30], the Ki in assay [1] (setting [5]) was determined as 2130 nM; in assay [2] (setting [6]), 16000 nM; in assay [3] (setting [7]), 90 nM; in assay [4] (setting [8]), 5100 nM.
For `O=C(Nc1ccc(OCc2cccc(F)c2)cc1)C1CCN(c2ccncc2)CC1` [Compound 4] the same measures were 425 nM, 6700 nM, 25100 nM and 3880 nM.
On to `O=C(Nc1ccc(F)cc1)Nc1cccc(NC(=O)C2CCN(c3ccncc3)CC2)c1` [Compound 12, 1-(3-(1-(pyridin-4-yl)piperidine-4-carboxamido)phenyl)-3-(4-fluorophenyl)urea], for which the inhibition at 10 µM in assay [1] (horse serum BChE) amounted to 15%. Also, the Ki amounted to 26700 nM in assay [2] (setting [6]), 16500 nM in assay [3] (setting [7]) and 735 nM in assay [4] (setting [8]).
`O=C(Nc1cccc(OCc2ccc(F)cc2)c1)C1CCN(C2CCCC2)CC1` [Compound 15, N-(3-(4-fluorobenzyloxy)phenyl)-1-cyclopentylpiperidine-4-carboxamide]: the Ki in assay [1] (setting [5]) stood at 115 nM; in assay [2] (setting [6]) it was 30000 nM. Further, the inhibition at 50 µM in assay [3] (human recombinant fXa) worked out at 40%. The inhibition at 10 µM in assay [4] is 27%.
Consider “N-(2-(3-chlorobenzyloxy)phenyl)-1-isopropylpiperidine-4-carboxamide [Compound 28]”, for which the Ki was found to be 4100 nM in assay [1] (setting [5]), 23000 nM in assay [2] (setting [6]), 867 nM in assay [3] (setting [7]) and 7000 nM in assay [4] (setting [8]).
The like results for `O=C(NCc1ccc(F)cc1)c1cccc(NC(=O)C2CCN(c3ccncc3)CC2)c1` [Compound 10, N-(3-(4-fluorobenzylcarbamoyl)phenyl)-1-(pyridin-4-yl)piperidine-4-carboxamide] were, in that order, 370 nM, 10600 nM, 2400 nM and 255 nM.
For the molecule `N=C(N)N1CCC(C(=O)Nc2ccccc2OCc2ccc(Cl)cc2)CC1` [Compound 21, N-(2-(4-Chlorobenzyloxy)phenyl)-1-amidinopiperidine-4-carboxamide hydrochloride], the Ki in assay [1] (setting [5]) was found to be 8200 nM; in assay [2] (setting [6]), 25900 nM; in assay [3] (setting [7]), 60600 nM. The inhibition at 10 µM in assay [4] came out at 38%.
On to `O=C(Nc1cccc(OCc2ccc(F)cc2)c1)C1CCN(c2ccncc2)CC1` [Compound 2], for which the Ki in assay [1] (setting [5]) was found to be 1210 nM; in assay [2] (setting [6]) it was 210 nM; in assay [3] (setting [7]), 1100 nM; in assay [4] (setting [8]), 240 nM.
For `O=C(Nc1cccc(OCCc2ccc(F)cc2)c1)C1CCN(c2ccncc2)CC1` [Compound 7] the same measures were 5630 nM, 4460 nM, 133 nM and 650 nM.
In the case of `CC(C)N1CCC(C(=O)Nc2cccc(OCc3ccc(F)cc3)c2)CC1` [Compound 14, N-(3-(4-fluorobenzyloxy)phenyl)-1-isopropylpiperidine-4-carboxamide], the Ki in assay [1] (eqBChE 0.18 U/mL, butyrylthiocholine iodide 50-300 µM, inhibitor 0-1 µM, x-axis intercept, read-out: Ki eqBChE from replot of Lineweaver–Burk slopes versus [I]) came to 104 nM; in assay [1] (setting [5]) it was 130 nM; in assay [4] (setting [8]) it was 15500 nM. The inhibition at 50 µM in assay [2] (bovine serum thrombin) is 5%; in assay [3] (human recombinant fXa), 28%.
In the case of `CC(C)N1CCC(C(=O)Nc2ccccc2OCc2ccc(F)cc2)CC1` [Compound 18, N-(2-(4-fluorobenzyloxy)phenyl)-1-isopropylpiperidine-4-carboxamide], the Ki was determined as 378 nM in assay [1] (setting [5]), 5350 nM in assay [2] (setting [6]) and 10500 nM in assay [3] (setting [7]). Further, the inhibition at 10 µM in assay [4] worked out at 15%.
Turning to `O=C(Nc1ccccc1OCc1cccc(F)c1)C1CCN(c2ccncc2)CC1` [Compound 5], the Ki in assay [1] (setting [5]) came to 655 nM. In addition, the inhibition at 50 µM amounted to 10% in assay [2] (bovine serum thrombin) and 2% in assay [3] (human recombinant fXa). The inhibition at 10 µM in assay [4] came out at 12%.
For `O=C(Nc1cccc(CCc2ccc(F)cc2)c1)C1CCN(c2ccncc2)CC1` [Compound 8], the Ki was found to be 8200 nM in assay [1] (setting [5]), 3720 nM in assay [2] (setting [6]), 37700 nM in assay [3] (setting [7]) and 495 nM in assay [4] (setting [8]).
In the case of `N=C(N)N1CCC(C(=O)Nc2cccc(OCc3cc(-c4ccc(Cl)s4)on3)c2)CC1` [Compound 31], the values for the Ki in assay [1] (setting [5]) and in assay [3] were 1620 nM and 15 nM, respectively. Also, the inhibition at 10 µM in assay [4] is 31%.
With `CC(C)N1CCC(C(=O)Nc2ccccc2OCc2cc(-c3ccc(Cl)cc3)on2)CC1` [Compound 26], the Ki in assay [1] (setting [5]) is 1110 nM; in assay [2] (setting [6]) it was 13700 nM; in assay [3] (setting [7]), 7 nM; in assay [4] (setting [8]) it was 11500 nM.
For the molecule `O=C(Nc1ccc(OCc2ccc(F)cc2)cc1)C1CCN(C2CCCC2)CC1` [Compound 17, N-(4-(4-fluorobenzyloxy)phenyl)-1-cyclopentylpiperidine-4-carboxamide], the values for the Ki in assay [1] (setting [5]) and in assay [4] (setting [8]) were 255 nM and 3520 nM, respectively. The inhibition at 50 µM in assay [2] (bovine serum thrombin) came to 25%; in assay [3] (human recombinant fXa), 28%.
As to `CC(C)N1CCC(C(=O)Nc2ccc(OCc3ccc(F)cc3)cc2)CC1` [Compound 16, N-(4-(4-fluorobenzyloxy)phenyl)-1-isopropylpiperidine-4-carboxamide], the results for the Ki in assay [1] (setting [5]) and in assay [4] (setting [8]) were 2360 nM and 6250 nM, respectively. For the same molecule, the inhibition at 50 µM in assay [2] (bovine serum thrombin) came out at 11%; in assay [3] (human recombinant fXa) it was 5%.
